Reference: patent publication US3968231A, “4-Aryl-1,2,3,4-tetrahydropyrrolo(3,4-b)indoles for treating schizophrenic manifestations” (Bayer Aktiengesellschaft, priority 1975, dated 1976)
Read-outs that look alike come from different tables or passages of the source.

System: amphetamine-induced symptoms
Assay: antagonism of amphetamine-induced symptoms in rats (block of d-amphetamine cage movement, rating scale)
Assay type: in vivo
Conditions: Rattus norvegicus, ip, i.p. test compound, rated one hour after amphetamine
Text: The tranquilizing agents of the present invention are characterized by relief of such schizophrenic manifestations in humans as hallucinations, hostility, suspiciousness, emotional and social withdrawal, anxiety, agitation and tension. Standard procedures of detecting and comparing tranquilizing activity of compounds in this series and for which there is an excellent correlation with human efficacy is the antagonism of amphetamine-induced symptoms in rats test as taught by A. Weissman, et al., J. Pharmacol. Exp. Ther., 151, 339 (1966) and by Quinton, et al., Nature, 200, 178 (1963).
The effects of the compounds of the present invention on prominent amphetamine-induced symptoms were studied in rats by a rating scale modeled after the one reported by Quinton and Halliwell, and Weissman. Groups of five rats were placed in a covered plastic cage measuring approximately 26 cm. × 42 cm. × 16 cm. After a brief period of acclimation in the cage, the rats in each group were treated intraperitoneally (i.p.) with the test compound. […] On the basis of dose-response data after amphetamine it was possible to determine the effective dose of the compound necessary to antagonize or block the characteristic amphetamine behavior of cage movement for fifty percent of the rats tested (ED50). The time of rating chosen coincides with the peak action of amphetamine which is 60-80 min. after treatment with this agent.
Employing the above-described procedure, the following compounds were tested for their ability to block the behavior effects of amphetamine, the results being reported as the ED50 in mg./kg. at the indicated times: ##SPC25##

[1] = d-amphetamine sulfate 5 mg./kg. i.p. 1 hr. later, read-out: ED50 (dose antagonizing/blocking characteristic amphetamine cage movement in fifty percent of rats), 1 hr.
[2] = d-amphetamine sulfate 5 mg./kg. i.p. 5 hrs. later, read-out: ED50 (dose antagonizing/blocking characteristic amphetamine cage movement in fifty percent of rats), 5 hrs.

| Structure (SMILES) | ED50 [1] | ED50 [2] |
| --- | --- | --- |
| CN1Cc2c(n(-c3ccc(F)cc3)c3ccc(F)cc23)C1 [F F CH3, 7-Fluoro-4-(p-fluorophenyl)-2-methyl-1,2,3,4-tetrahydropyrrolo[3,4-b]indole] | 3.2 to 5.6 mg/kg | > 10 mg/kg |
| Cl.OC(CCCN1Cc2c(n(-c3ccc(F)cc3)c3ccc(F)cc23)C1)c1ccc(F)cc1 (centres unmarked) [F F p-FC6 H4 CH(CH2)3 --, 7-Fluoro-4-(p-fluorophenyl)-2-[4-(p-fluorophenyl)-4-hydroxybutyl]-1,2,3,4-tetrahydropyrrolo[3,4-b]indole hydrochloride] | 1 to 3.2 mg/kg | 1 to 3.2 mg/kg |
| CN(C)CCCN1c2ccccc2Sc2ccc(Cl)cc21 [chlorpromazine, reference compound] | > 10 mg/kg | – |
